In US10633338B2, “Binding Function 3 (BF3) site compounds as therapeutics and methods for their use” (THE UNIVERSITY OF BRITISH COLUMBIA, priority 2014, dated 2020):
Like-named read-outs stand apart in the source and are kept apart here. Blank lines part the entries; values can stand above or below the molecule they belong to.

Tests used:
androgen receptor (AR) = molecular target: T1, androgen receptor (AR) (Homo sapiens, UniProt P10275, T878A); experiment: eGFP cellular AR transcription assay; format: cell-based
T1 construct: stably transfected eGFP-expressing LNCaP human prostate cancer cells (LN-ARR2PB-eGFP) containing an androgen responsive probasin-derived promoter; endogenous in cells; host or cells: LNCaP (LN-ARR2PB-eGFP)
T1 sequence (P10275 1-920 T878A): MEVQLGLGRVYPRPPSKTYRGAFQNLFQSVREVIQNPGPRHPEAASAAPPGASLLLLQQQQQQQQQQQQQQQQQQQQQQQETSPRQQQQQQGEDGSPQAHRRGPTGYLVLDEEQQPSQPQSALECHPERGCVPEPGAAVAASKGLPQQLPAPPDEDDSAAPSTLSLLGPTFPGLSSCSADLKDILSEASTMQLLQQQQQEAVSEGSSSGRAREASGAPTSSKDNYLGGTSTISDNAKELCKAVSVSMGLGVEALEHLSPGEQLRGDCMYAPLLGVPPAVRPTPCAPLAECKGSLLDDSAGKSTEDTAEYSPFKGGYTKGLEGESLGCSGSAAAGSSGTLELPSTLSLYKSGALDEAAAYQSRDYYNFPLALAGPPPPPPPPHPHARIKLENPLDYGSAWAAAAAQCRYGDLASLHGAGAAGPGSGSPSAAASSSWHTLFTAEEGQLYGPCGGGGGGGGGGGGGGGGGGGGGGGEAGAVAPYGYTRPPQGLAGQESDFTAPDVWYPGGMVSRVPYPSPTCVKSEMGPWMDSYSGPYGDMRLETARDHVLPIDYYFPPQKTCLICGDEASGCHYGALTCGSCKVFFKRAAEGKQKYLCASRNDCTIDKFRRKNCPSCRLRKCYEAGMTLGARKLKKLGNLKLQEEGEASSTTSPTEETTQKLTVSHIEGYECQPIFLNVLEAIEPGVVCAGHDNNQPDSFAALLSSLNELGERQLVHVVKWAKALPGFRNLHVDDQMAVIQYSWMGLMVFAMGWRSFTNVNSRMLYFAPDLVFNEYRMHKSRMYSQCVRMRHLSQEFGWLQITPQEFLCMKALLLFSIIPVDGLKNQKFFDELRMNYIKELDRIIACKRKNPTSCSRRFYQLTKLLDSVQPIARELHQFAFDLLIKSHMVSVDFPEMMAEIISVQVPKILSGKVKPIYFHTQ
In short: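 AR transcriptional activity is read as eGFP expression from a probasin-derived androgen-responsive promoter. Compound titrated 0-100 μM in the presence of 0.1 nM R1881; 35,000 cells/well.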

PSA = experiment: Prostate Surface Antigen (PSA) assay, PSA excreted into the media; format: cell-based, human; settings: same plates as eGFP assay
Experimental: The evaluation of PSA excreted into the media was performed in parallel to the eGFP assay using the same plates (see above description). After the cells were incubated for 3 days 150 μl of the media was taken from each well, and added to 150 μl of PBS.

[1] = LN-ARR2PBeGFP LNCaP cells, 0.1 nM R1881, 3 days incubation
[2] = PSA excreted into media, 3 days incubation
[3] = LN-ARR2PB-eGFP LNCaP cells, 0.1 nM R1881, 3 days, 0-100 μM compound, read-out: IC50 (eGFP)
[4] = Homo sapiens, 72 h, media after 3 days, read-out: IC50 (PSA)
[5] = LN-ARR2PBeGFP LNCaP cells, 0.1 nM R1881, 3 days incubation, read-out: eGFP IC50
[6] = Homo sapiens, 72 h, PSA excreted into media, 3 days incubation, read-out: PSA IC50
[7] = LN-ARR2PB-eGFP LNCaP cells, 0.1 nM R1881, 3 days, 0-100 μM compound

Compound: Fc1cccc2nc(-c3c[nH]c4c(Cl)cccc34)ccc12 [Compound 13712]
- eGFP IC50 (androgen receptor (AR); [1]): Inactive
- PSA IC50 (PSA; [2]): Inactive

Compound: c1ccc2c(Cc3nn[nH]n3)c[nH]c2c1 [13 700]
- IC50 (eGFP) (androgen receptor (AR); [7]): IC50 (eGFP) = Inactive
- IC50 (PSA) (PSA; media after 3 days): IC50 (PSA) = Inactive

Compound: Cc1cccc2c(-c3ccc4c(Br)cccc4n3)c[nH]c12 [13 678]
- IC50 (eGFP) (androgen receptor (AR); [7]): IC50 (eGFP) = Inactive
- IC50 (PSA) (PSA; media after 3 days): IC50 (PSA) = Inactive

Compound: Cc1cc(F)cc2c(-c3cnc4ccc(F)cc4n3)n[nH]c12 [Compound 13718]
- IC50 (androgen receptor (AR); [5]): 0.37 µM
- IC50 (PSA; [6]): 0.11 µM

Compound: Fc1cc(Cl)c2[nH]ccc2c1 [Compound 13721]
- eGFP IC50 (androgen receptor (AR); [1]): Inactive
- PSA IC50 (PSA; [2]): Inactive

Compound: N#C/C(=C\c1ccc(F)cc1)c1c[nH]c2ccccc12 [Compound 13436]
- IC50 (androgen receptor (AR); eGFP IC50, LN-ARR2PBeGFP LNCaP cells, 0.1 nM R1881, 3 days incubation): 0.6 µM
- IC50 (PSA; [6]): 0.4 µM

Compound: Cc1cccc2c(-c3ccc4cnccc4c3)c[nH]c12 [Compound 13765]
- IC50 (eGFP) (androgen receptor (AR); [7]): IC50 (eGFP) = inactive
- eGFP IC50 (androgen receptor (AR); [1]): Inactive
- PSA IC50 (PSA; [2]): Inactive
- IC50 (PSA) (PSA; media after 3 days): IC50 (PSA) = inactive

Compound: Cc1ccc2ccc(-n3ccc4cccc(C)c43)nc2c1 [Compound 13649]
- eGFP IC50 (androgen receptor (AR); [1]): Inactive
- PSA IC50 (PSA; [2]): Inactive

Compound: Cc1cc(C)c2[nH]cc(-c3ccc4c(C#N)cccc4n3)c2c1 [Compound 13608]
- eGFP IC50 (androgen receptor (AR); [1]): Inactive
- PSA IC50 (PSA; [2]): Inactive

Compound: Cc1cccc2c(-c3ccc4c(Br)cccc4n3)c[nH]c12 [Compound 13678]
- eGFP IC50 (androgen receptor (AR); [1]): Inactive
- PSA IC50 (PSA; [2]): Inactive

Compound: c1ccc2c(-c3nn[nH]n3)c[nH]c2c1 [13 701]
- IC50 (eGFP) (androgen receptor (AR); [7]): IC50 (eGFP) = Inactive
- IC50 (PSA) (PSA; media after 3 days): IC50 (PSA) = Inactive

Compound: Fc1cc2c(-c3ccc4c(F)cccc4n3)c[nH]c2c(F)c1F [Compound 13751]
- eGFP IC50 (androgen receptor (AR); [1]): Inactive
- PSA IC50 (PSA; [2]): Inactive

Compound: Clc1cccc2nc(-c3c[nH]c4c(Cl)cccc34)ccc12 [Compound 13748]
- eGFP IC50 (androgen receptor (AR); [1]): Inactive
- PSA IC50 (PSA; [2]): Inactive

Compound: Cc1cccc2c(-c3cccnc3)c[nH]c12 [Compound 13655]
- IC50 (androgen receptor (AR); [5]): 1.66 µM
- IC50 (PSA; [6]): 0.61 µM

Compound: Fc1ccc2ccc(-c3c[nH]c4cc(F)c(F)cc34)nc2c1 [Compound 13630]
- IC50 (androgen receptor (AR); [5]): 0.6 µM
- IC50 (PSA; [6]): 0.43 µM

Continued, values first:

- IC50 (androgen receptor (AR); [3]): 1.3 µM
- IC50 (PSA; [4]): 1.56 µM
Compound: Brc1ccc2c(-c3ccc4ccccc4n3)c[nH]c2c1 [13 568]

- IC50 (androgen receptor (AR); [5]): 2.7 µM
- IC50 (PSA; [6]): 2.32 µM
Compound: Cc1[nH]c2ccccc2c1SCc1ccccc1 [Compound 13416]

- IC50 (androgen receptor (AR); [3]): 0.2 µM
- IC50 (PSA; [4]): 0.23 µM
Compound: CCc1cccc2c(-c3ccc4ccccc4n3)c[nH]c12 [13 567]

- IC50 (androgen receptor (AR); [5]): 2.11 µM
- IC50 (PSA; PSA excreted into media, 3 days incubation, read-out: PSA IC50): 2.18 µM
Compound: CC1(C)c2ccccc2NC1c1c[nH]c2ncccc12 (stereo not shown) [Compound 13556]

- IC50 (androgen receptor (AR); [5]): 2.1 µM
- IC50 (PSA; [6]): 0.11 µM
Compound: c1ccc2[nH]c(-c3c[nH]c4ccccc34)cc2c1 [Compound 13127]

- IC50 (androgen receptor (AR); [5]): 1.13 µM
- IC50 (PSA; [6]): 0.29 µM
Compound: Brc1cccc2c(-c3cnc4ccccc4c3)c[nH]c12 [Compound 13653]

- IC50 (androgen receptor (AR); [5]): 0.166 µM
- IC50 (PSA; [6]): 0.099 µM
Compound: Cc1cc(-c2c[nH]c3c(C)cccc23)nc2ccccc12 [Compound 13594]

- IC50 (androgen receptor (AR); [5]): 3.54 µM
- IC50 (PSA; [6]): 1.76 µM
Compound: Cc1c(F)ccc2c(-c3nc4ccccc4cc3O)c[nH]c12 [Compound 13652]

- IC50 (androgen receptor (AR); [3]): 1.4 µM
- IC50 (PSA; [4]): 6.61 µM
Compound: c1ccc2ncc(-c3n[nH]c4ccccc34)cc2c1 [13 684]

- IC50 (androgen receptor (AR); [3]): 2.6 µM
- IC50 (PSA; [4]): 1.91 µM
Compound: Brc1ccc2[nH]cc(-c3ccc4ccccc4n3)c2c1 [13 683]

- IC50 (androgen receptor (AR); [5]): 0.042 µM
- IC50 (PSA; [6]): 0.085 µM
Compound: Cc1cccc2c(-c3ccc4ccccc4c3)c[nH]c12 [Compound 13591]

- IC50 (androgen receptor (AR); [5]): 0.069 µM
- IC50 (PSA; [6]): 0.087 µM
Compound: Fc1cc(F)c2[nH]cc(-c3ccc4cccc(F)c4n3)c2c1 [Compound 13695]

- IC50 (androgen receptor (AR); [3]): 3.7 µM
- IC50 (PSA; [4]): 3.19 µM
Compound: CC1(C)c2ccc(Br)cc2NC1c1c[nH]c2c(OCc3ccccc3)cccc12 (stereo not shown) [13 543]
